# Measurements from article PMC3711802 (IUBMB life, 2012).
# Read-outs that look alike come from different tables or passages of the source.
# What was measured:
# EGFR [1] = target: EGFR (Homo sapiens, UniProt P00533); experiment: Displacement of bound [^125I]-EGF in A431 cells; type: binding
# [2] = test system: A431 subcutaneous xenografts; experiment: Treatment of subcutaneous A431 xenografts in nude mice; type: in vivo, human; details: EGFR over-expressing cancers
# EGFR [3] = details: cited from earlier work
# EGFR expressing cells = details: in vitro and in vivo, cited from earlier work
# EGFR [4] = details: ref [8] Li et al., cited from earlier work
substance,measurement,setting,value
Polyethyleneimine-polyetheleneglycol-EGF [PP-EGF],enhancement of potency by complexation with PolyIC,"EGFR [1]; [^125I]-EGF displacement, PolyIC complex vs uncomplexed conjugate",approximately 10 fold
same,in vitro and in vivo efficacy of both vectors in PolyIC treatment,[2],in vitro and in vivo efficacies of both vectors are comparable
"EGF: Recombinant human EGF (hEGF, Peprotech Asia)",EGFR activation upon binding,EGFR [3]; ref [20],activates the kinase moiety of the receptor
Polyethyleneimine-polyetheleneglycol-GE11 [PPGE11],EGFR-binding affinity/inhibitory potency compared to GE11,EGFR [1]; vs free GE11,much more potent EGFR binder as compared to GE11
same,in vitro and in vivo efficacy of both vectors in PolyIC treatment,[2],in vitro and in vivo efficacies of both vectors are comparable
same,gene delivery into EGFR expressing cells,"EGFR expressing cells; ref [9],[10],[16]",effective and specific gene delivery into EGFR expressing cells
same,targeting of EGFR over-expressing tumors,"EGFR expressing cells; ref [9],[10]",enabled the targeting of EGFR over-expressing tumors in vitro and in vivo
YHWYGYTPQNVI [GE11],affinity to the EGFR (in words),EGFR [4]; as a free ligand,high affinity
same,affinity to the EGFR,EGFR [4]; free ligand,~ 22 nM
same,EGFR activation,"EGFR [3]; as previously shown by us, ref [9],[10]",does not activate the receptor
same,EGFR activation,EGFR [3]; ref [8],does not activate the EGFR
same,EGFR activation,"EGFR [3]; ref [9],[10]",without EGFR activation
